Source: patent US20040157798A1, “Drug for use in bone grafting” (priority 2001, published 2004)

Test system: 10 mm tibial defect model in rabbits
Assay: 10 mm tibial defect model in rabbits with calcium sulphate (Osteoset) cylinder; pQCT scans and radiographs
Format: in vivo, NZW rabbit
Details: for BMC / BMD / Polar Moment / Total Bone Area: 6 weeks; for Total Bone Area: CT slice at centre of defect
Source text: The following example outlines the process by which the effects of bisphosphonates on potentiating new bone formation in a graft may be observed. In this regard, the effects on bone mineralisation and the mechanical properties are observed in a 10 mm tibial defect model in rabbits.
The present experiment uses an 8-week-old NZW rabbit model. A 10 mm gap is surgically removed from the tibiae of the rabbits. The bones are held with a M-100 external fixator.
Cylinders of calcium sulphate (Osteoset) were prepared on the day of surgery. Moulds were prepared using a combination of 1.0 ml and 3.0 ml syringes, and the Osteoset poured into the moulds in a sterile environment. The cylinders were removed from the moulds at 12 minutes, and allowed to dry in air for 90 minutes, followed by final drying in a microwave for 30 seconds. Once dry, the cylinders were formed into a standard dimension of 10 mm length, with an external diameter of 9 mm and with a 3 mm diameter internal core. The cylinders weighed 0.80.9 g. The cylinders were stored in sterile environment until required.
At the commencement of the operative procedure 0.15 ml of saline, or 0.15 ml of zoledronic acid (0.05 mg/kg) was adsorbed onto a calcium sulphate cylinder, which was then replaced into the sterile container.
The operative field was prepared by shaving with clippers, disinfected with povidone iodine 4% w/v in 70% alcohol. The right tibia was exposed sub-periosteally along its length and four 3 mm Orthofix pins inserted. An M-100 monolateral external fixator (Orthofix S.L.R) was applied. A 10 mm piece of mid-diaphyseal tibia was removed using an oscillating saw, along with the central 10 mm of periosteum. A calcium sulphate cylinder was then placed in the defect, and held by slight compression of the external fixator.
The animals were randomised such that at the time of surgery, 24 animals had Osteoset cylinders with saline adsorbed inserted, 12 of whom were given saline-only infusions and 12 of whom were given 0.1 mg/kg zoledronic acid infusion at the time of surgery and again on day 14. A further 12 animals had Osteoset cylinders with 0.15 ml of zoledronic acid (0.05 mg/kg) adsorbed inserted, and given a saline only infusion. Note that in the third leg the zoledronic acid was administered to the site via the cylinder, and not directly.
Animals were culled at 28 days (18 animals) and at 42 days (18 animals) with IV pentobarbitone 150 mg/kg.
[…]. CT scans were performed at 28 days (18 animals) and at 42 days (18 animals) using a Stratec XCT Research SA pQCT scanner.

[1] = IV ZA 0.1 mg/kg at surgery and day 14
[2] = Local ZA 0.05 mg/kg adsorbed on cylinder

O=P(O)(O)C(O)(Cn1ccnc1)P(=O)(O)O [ZA, 1-hydroxy-2-[(1H-imidazol-1-yl)ethylidine]bisphosphonic acid]
Bone area increase over controls (4 weeks, IV ZA group): 131% | Polar moment of inertia increase over controls (4 weeks, IV ZA group): 104% | Bone area increase over controls (4 weeks, Local ZA group): 216% | Polar moment of inertia increase over controls (4 weeks, Local ZA group): 316% | BMC [1]: 45.9 (20.7) mg/mm | BMD [1]: 784.6 (97.7) mg/cm^3 | Polar Moment [1]: 442.8 (585.2) mm^4 | Total Bone Area (IV ZA 0.1 mg/kg infusion at surgery and day 14): 58.0 (23.2) mm^2 | Total Bone Area (Local ZA 0.05 mg/kg adsorbed on calcium sulphate cylinder): 66.6 (7.9) mm^2 | BMC [2]: 45.0 (5.4) mg/mm | BMD [2]: 676.2 (49.3) mg/cm^3 | Polar Moment [2]: 1343.1 (254.7) mm^4 | Polar moment of inertia increase over controls (six weeks, Local ZA group): 40% | Cross sectional area increase over controls (six weeks, local bisphosphonate group, not significant): 20%
